Reference: patent US12448399B2, “Cereblon-based KRAS degrading PROTACs and uses related thereto” (Arvinas Operations, Inc., priority 2023, dated 2025)

Biological target: T1, KRas-G12D (Homo sapiens, UniProt P01116, G12D)
T1 construct: insert the HiBiT tag onto the N-terminus of one or more of the endogenous KRas alleles; host or cells: AsPC-1 HiBiT-KRasG12D knock-in clone (one tagged allele, two untagged KRasG12D alleles)
Assay: HiBiT Degradation Assay (G12D), AsPC-1 HiBiT-KRasG12D cells, 24 hr
Type: cell-based
Conditions: for Dmax: ASPC1, AsPC-1 cells, maximum degradation observed; for DC50: AsPC-1 cells
Method in brief: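 AsPC-1 cells with CRISPR N-terminal HiBiT knock-in on one endogenous KRasG12D allele, treated 24 hr at 37° C with compound titrations in 0.5% DMSO. Lytic HiBiT luminescence normalized to DMSO, fitted to a 4-parameter model for DC50 and Dmax. Parallel alamar blue (4 hr) checked viability.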

T1 sequence (P01116 1-188 isoform P01116-2 G12D): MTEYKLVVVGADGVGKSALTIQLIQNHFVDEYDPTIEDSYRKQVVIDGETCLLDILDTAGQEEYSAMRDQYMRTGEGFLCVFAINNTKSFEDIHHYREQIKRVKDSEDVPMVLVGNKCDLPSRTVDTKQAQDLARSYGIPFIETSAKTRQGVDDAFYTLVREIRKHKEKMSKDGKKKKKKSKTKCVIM

Row | SMILES | Dmax [%] | DC50 [µM]
1 | C#Cc1c(F)ccc2cc(O)cc(-c3ncc4c(N5CC6CCC(C5)N6)nc(OCCN5CCC(CN6CCC(CC7CCN(c8ccc9c(c8Cl)CN(C8CCC(=O)NC8=O)C9=O)CC7)CC6)CC5)nc4c3F)c12 (centres unmarked) [Compound 81, 3-{4-chloro-5-[4-({1-[(1-{2-[(4-{3,8-diazabicyclo[3.2.1]octan-3-yl}-7-(8-ethynyl-7-fluoro-3-hydroxynaphthalen-1-yl)-8-fluoropyrido[4,3-d]pyrimidin-2-yl)oxy]ethyl}piperidin-4-yl)methyl]piperidin-4-yl}methyl)piperidin-1-yl]-1-oxo-2,3-dihydro-1H-isoindol-2-yl}piperidine-2,6-dione] | > 70 | < 5.1
2 | CCc1cccc2cc(O)cc(-c3ncc4c(N5CC6CCC(C5)N6)nc(OCCN5CCC(CN6CCC(Oc7cccc8c7C(=O)N(C7CCC(=O)NC7=O)C8=O)CC6)CC5)nc4c3F)c12 (centres unmarked) [Compound 18] | ≤ 25 | > 1
3 | C#Cc1c(F)ccc2cc(O)cc(-c3ncc4c(N5CC6CCC(C5)N6)nc(OCCN5CCC(CN6CCN(CC7CCN(c8ccc9c(c8Cl)CN(C8CCC(=O)NC8=O)C9=O)CC7)CC6)CC5)nc4c3F)c12 (centres unmarked) [Compound 219, 3-[4-chloro-5-[4-[[4-[[1-[2-[4-(3,8-diazabicyclo[3.2.1]octan-3-yl)-7-(8-ethynyl-7-fluoro-3-hydroxy-1-naphthyl)-8-fluoro-pyrido[4,3-d]pyrimidin-2-yl]oxyethyl]-4-piperidyl]methyl]piperazin-1-yl]methyl]-1-piperidyl]-1-oxo-isoindolin-2-yl]piperidine-2,6-dione] | > 70 | < 5.1
4 | CCc1cccc2cc(O)cc(-c3ncc4c(N5CC6CCC(C5)N6)nc(OC[C@]56CCCN5[C@@H](COC(=O)N5CCN(c7cccc8c7C(=O)N(C7CCC(=O)NC7=O)C8=O)CC5)CC6)nc4c3F)c12 (stereo partly drawn) [Compound 65, [(3R,8R)-8-[[4-(3,8-diazabicyclo[3.2.1]octan-3-yl)-7-(8-ethyl-3-hydroxy-1-naphthyl)-8-fluoro-pyrido[4,3-d]pyrimidin-2-yl]oxymethyl]-1,2,3,5,6,7-hexahydropyrrolizin-3-yl]methyl 4-[2-(2,6-dioxo-3-piperidyl)-1,3-dioxo-isoindolin-4-yl]piperazine-1-carboxylate] | – | 0.25 to 1
5 | C#Cc1c(F)ccc2cc(O)cc(-c3ncc4c(N5CC6CCC(C5)N6)nc(OCCN5CCC(CN6CCC7(CC6)CCN(c6ccc8c(c6)CN(C6CCC(=O)NC6=O)C8=O)CC7)CC5)nc4c3F)c12 (centres unmarked) [Compound 93, 3-(5-{9-[(1-{2-[(4-{3,8-diazabicyclo[3.2.1]octan-3-yl}-7-(8-ethynyl-7-fluoro-3-hydroxynaphthalen-1-yl)-8-fluoropyrido[4,3-d]pyrimidin-2-yl)oxy]ethyl}piperidin-4-yl)methyl]-3,9-diazaspiro[5.5]undecan-3-yl}-1-oxo-2,3-dihydro-1H-isoindol-2-yl)piperidine-2,6-dione] | > 70 | < 5.1
6 | CCc1cccc2cc(O)cc(-c3ncc4c(N5CC6CCC(C5)N6)nc(OCCN5CCC6(CC5)CN(c5cccc7c5CN(C5CCC(=O)NC5=O)C7=O)C6)nc4c3F)c12 (centres unmarked) [Compound 141] | – | > 1
7 | C#Cc1c(F)ccc2cc(O)cc(-c3ncc4c(N5CC6CCC(C5)N6)nc(OCCN5CCC(CC6(F)CCN(CC7CCN(c8cccc9c8CN(C8CCC(=O)NC8=O)C9=O)CC7)CC6)CC5)nc4c3F)c12 (centres unmarked) [Compound 131, 3-{4-[4-({4-[(1-{2-[(4-{3,8-diazabicyclo[3.2.1]octan-3-yl}-7-(8-ethynyl-7-fluoro-3-hydroxynaphthalen-1-yl)-8-fluoropyrido[4,3-d]pyrimidin-2-yl)oxy]ethyl}piperidin-4-yl)methyl]-4-fluoropiperidin-1-yl}methyl)piperidin-1-yl]-1-oxo-2,3-dihydro-1H-isoindol-2-yl}piperidine-2,6-dione] | > 70 | < 5.1
8 | CCc1cccc2cc(O)cc(-c3ncc4c(N5CC6CCC(C5)N6)nc(OC[C@@]56CCCN5[C@H](COC(=O)N5CCN(c7ccc8c(c7)CN(C7CCC(=O)N(C)C7=O)C8=O)CC5)CC6)nc4c3F)c12 (stereo partly drawn) [Compound 50, [(3S,8S)-8-[[4-(3,8-diazabicyclo[3.2.1]octan-3-yl)-7-(8-ethyl-3-hydroxy-1-naphthyl)-8-fluoro-pyrido[4,3-d]pyrimidin-2-yl]oxymethyl]-1,2,3,5,6,7-hexahydropyrrolizin-3-yl]methyl4-[2-(1-methyl-2,6-dioxo-3-piperidyl)-1-oxo-isoindolin-5-yl]piperazine-1-carboxylate] | ≤ 25 | < 5.1
9 | C#Cc1c(F)ccc2cc(O)cc(-c3ncc4c(N5CC6CCC(C5)N6)nc(OCCN5CCN(CC6CCN(CC7CCN(c8ccc9c(c8)n(C)c(=O)n9C8CCC(=O)NC8=O)CC7)CC6)CC5)nc4c3F)c12 (centres unmarked) [Compound 173, 3-{5-[4-({4-[(4-{2-[(4-{3,8-diazabicyclo[3.2.1]octan-3-yl}-7-(8-ethynyl-7-fluoro-3-hydroxynaphthalen-1-yl)-8-fluoropyrido[4,3-d]pyrimidin-2-yl)oxy]ethyl}piperazin-1-yl)methyl]piperidin-1-yl}methyl)piperidin-1-yl]-3-methyl-2-oxo-2,3-dihydro-1H-1,3-benzodiazol-1-yl}piperidine-2,6-dione] | > 70 | < 5.1
10 | C#Cc1c(F)ccc2cc(O)cc(-c3ncc4c(N5CC6CCC(C5)N6)nc(OC[C@@H]5C[C@@H](OC6CCN(CC7CCN(c8ccc9c(c8)n(C)c(=O)n9C8CCC(=O)NC8=O)CC7)CC6)CN5C)nc4c3F)c12 (stereo partly drawn) [Compound 96, 3-(5-{4-[(4-{[(3R,5S)-5-{[(4-{3,8-diazabicyclo[3.2.1]octan-3-yl}-7-(8-ethynyl-7-fluoro-3-hydroxynaphthalen-1-yl)-8-fluoropyrido[4,3-d]pyrimidin-2-yl)oxy]methyl}-1-methylpyrrolidin-3-yl]oxy}piperidin-1-yl)methyl]piperidin-1-yl}-3-methyl-2-oxo-2,3-dihydro-1H-1,3-benzodiazol-1-yl)piperidine-2,6-dione] | > 70 | < 5.1
11 | CCc1cccc2cc(O)cc(-c3ncc4c(N5CC6CCC(C5)N6)nc(OCCN5CCC(CC6CCN(c7cccc8c7n(C)c(=O)n8C7CCC(=O)NC7=O)CC6)CC5)nc4c3F)c12 (centres unmarked) [Compound 28, 3-[4-[4-[[1-[2-[4-(3,8-diazabicyclo[3.2.1]octan-3-yl)-7-(8-ethyl-3-hydroxy-1-naphthyl)-8-fluoro-pyrido[4,3-d]pyrimidin-2-yl]oxyethyl]-4-piperidyl]methyl]-1-piperidyl]-3-methyl-2-oxo-benzimidazol-1-yl]piperidine-2,6-dione] | – | 0.25 to 1
12 | C#Cc1c(F)ccc2cc(O)cc(-c3ncc4c(N5CC6CCC(C5)N6)nc(OCCN5CCC6(CC5)CN(CC5(F)CCN(c7ccc8c(c7F)CN(C7CCC(=O)NC7=O)C8=O)CC5)C6)nc4c3F)c12 (centres unmarked) [Compound 119, 3-(5-{4-[(7-{2-[(4-{3,8-diazabicyclo[3.2.1]octan-3-yl}-7-(8-ethynyl-7-fluoro-3-hydroxynaphthalen-1-yl)-8-fluoropyrido[4,3-d]pyrimidin-2-yl)oxy]ethyl}-2,7-diazaspiro[3.5]nonan-2-yl)methyl]-4-fluoropiperidin-1-yl}-4-fluoro-1-oxo-2,3-dihydro-1H-isoindol-2-yl)piperidine-2,6-dione] | – | < 5.1
